Consider eleven compounds from US20250179066A1, “ZWITTERIONIC ANTIBACTERIAL COMPOUNDS” (Hoffmann-La Roche Inc., priority 2022, published 2025).

Structures can show the parent of a compound that is named as a salt.

For this experiment, the system named is Acinetobacter baumannii ATCC17961. Kind of experiment: Antimicrobial susceptibility testing: 90% growth inhibitory concentration (IC90) determination. Format: cell-based. To be noted: Acinetobacter baumannii, ATCC17961, 16 h, 90% growth inhibitory concentration against Acinetobacter baumannii ATCC17961, Iso-Sensitest broth, OD 600 nm over 16 h; read-out: ATCC 17961 IC90. The protocol:
The in vitro antimicrobial activity of the compounds was determined according to the following procedure: The assay used a 10-points Iso-Sensitest broth medium to measure quantitatively the in vitro activity of the compounds against Acinetobacter baumannii ATCC17961. Stock compounds in DMSO were serially twofold diluted (e.g. range from 10 to 0.0195 μM final concentration) in 384 wells microtiter plates and inoculated with 49 μL the bacterial suspension in Iso-Sensitest medium to have a final cell concentration of ˜5×10^(5) CFU/mL in a final volume/well of 50 μL/well. Microtiter plates were incubated at 35±2° C. Bacterial cell growth was determined with the measurement of optical density at λ=600 nm each min over a time course of 16 h. Growth inhibition was calculated during the logarithmic growth of the bacterial cells with determination of the concentration inhibiting 50% (IC50) and 90% (IC90) of the growth. Table 1 provides the 90% growth inhibitory concentrations (IC90) in micromoles per liter of the compounds of present invention obtained against the strain Acinetobacter baumannii ATCC17961.
By IC90 is commonly meant the point of the concentration-response curve where the effect stands at 90%. Take `Cn1c(-c2cn(-c3ccc(NCC(C)(C)O)cc3F)nc2C(F)(F)F)cnc1C(=O)Nc1ccc(C(=O)N2CCN(C(=O)[C@H]3CC[N@+](CC(=O)O)(CC4CNC4)CC3)CC2)c(Cl)c1` [Example 164, cis-2-[1-(azetidin-3-ylmethyl)-4-[4-[2-chloro-4-[[5-[1-[2-fluoro-4-[(2-hydroxy-2-methyl-propyl)amino]phenyl]-3-(trifluoromethyl)pyrazol-4-yl]-1-methyl-imidazole-2-carbonyl]amino]benzoyl]piperazine-1-carbonyl]piperidin-1-ium-1-yl]acetic acid;formate]: the IC90 was found to be 163 nM. Consider `CN(C)Cc1ccc(-n2cc(-c3cnc(C(=O)Nc4ccc(C(=O)N5CCN(C(=O)C6CC[N+](CC(=O)O)(CC7CNC7)CC6)CC5)c(Cl)c4)n3C)c(C(F)(F)F)n2)nc1` (centres unmarked) [Example 84, 2-[1-(azetidin-3-ylmethyl)-4-[4-[2-chloro-4-[[5-[1-[5-[(dimethylamino)methyl]-2-pyridyl]-3-(trifluoromethyl)pyrazol-4-yl]-1-methyl-imidazole-2-carbonyl]amino]benzoyl]piperazine-1-carbonyl]piperidin-1-ium-1-yl]acetic acid. 1:1 formic acid. 1:1 formate], for which the concentration for an effect of 90% (IC90) worked out at 1280 nM.

Turning to `Cn1c(-c2cn(-c3n[nH]c4ccccc34)nc2C(F)(F)F)cnc1C(=O)Nc1ccc(C(=O)N2CCN(C(=O)C3CC[N+](CC(=O)O)(CC4CNC4)CC3)CC2)c(Cl)c1` (centres unmarked) [Example 62, 2-[1-(azetidin-3-ylmethyl)-4-[4-[2-chloro-4-[[5-[1-(1H-indazol-3-yl)-3-(trifluoromethyl)pyrazol-4-yl]-1-methyl-imidazole-2-carbonyl]amino]benzoyl]piperazine-1-carbonyl]piperidin-1-ium-1-yl]acetic acid;formate], the concentration for an effect of 90% (IC90) was determined as 680 nM.

Consider `Cn1c(-c2cn(-c3cc4c(ccn4CCO)cn3)nc2C(F)(F)F)cnc1C(=O)Nc1ccc(C(=O)N2CCN(C(=O)[C@H]3CC[N@+](CC(=O)O)(CC4CNC4)CC3)CC2)c(Cl)c1` [Example 174, cis-2-[1-(azetidin-3-ylmethyl)-4-[4-[2-chloro-4-[[5-[1-[1-(2-hydroxyethyl)pyrrolo[3,2-c]pyridin-6-yl]-3-(trifluoromethyl)pyrazol-4-yl]-1-methyl-imidazole-2-carbonyl]amino]benzoyl]piperazine-1-carbonyl]piperidin-1-ium-1-yl]acetic acid. 1:1 2,2,2-trifluoroacetate], for which the IC90 came out at 430 nM.

For the compound `Cn1c(-c2cn(-c3ccc(N)cc3F)nc2C(F)(F)F)cnc1C(=O)Nc1ccc(C(=O)N2CCN(C(=O)CCC[N+](CCCN)(CCCN)CC(=O)O)CC2)c(Cl)c1` [Example 183, [4-[4-[4-[[5-[1-(4-amino-2-fluoro-phenyl)-3-(trifluoromethyl)pyrazol-4-yl]-1-methyl-imidazole-2-carbonyl]amino]-2-chloro-benzoyl]piperazin-1-yl]-4-oxo-butyl]-bis(3-aminopropyl)-(carboxymethyl)ammonium;formate], the IC90 came out at 108 nM. Regarding `Cc1cc(NC(=O)c2ncc(-c3cn(-c4ccc5[nH]ccc5n4)nc3C(F)(F)F)n2C)ccc1C(=O)N1CCN(C(=O)[C@H]2CC[N@+](CC(=O)O)(CC3CNC3)CC2)CC1` [Example 132, cis-2-[1-(azetidin-3-ylmethyl)-4-[4-[2-methyl-4-[[1-methyl-5-[1-(1H-pyrrolo[3,2-b]pyridin-5-yl)-3-(trifluoromethyl)pyrazol-4-yl]imidazole-2-carbonyl]amino]benzoyl]piperazine-1-carbonyl]piperidin-1-ium-1-yl]acetic acid. 1:1 2,2,2-trifluoroacetate], the IC90 came to 139 nM. As for `Cn1c(-c2cn(-c3ccc4[nH]c(CO)cc4n3)nc2C(F)(F)F)cnc1C(=O)Nc1ccc(C(=O)N2CCN(C(=O)[C@H]3CC[N@@+](CCCN)(CC(=O)O)CC3)CC2)c(Cl)c1` [Example 171, cis-2-[1-(3-aminopropyl)-4-[4-[2-chloro-4-[[1-methyl-5-[1-(2-methylol-1H-pyrrolo[3,2-b]pyridin-5-yl)-3-(trifluoromethyl)pyrazol-4-yl]imidazole-2-carbonyl]amino]benzoyl]piperazine-1-carbonyl]piperidin-1-ium-1-yl]acetic acid. 1:1 2,2,2-trifluoroacetate], the concentration for an effect of 90% (IC90) was found to be 281 nM. For the compound `Cn1c(-c2cn(-c3ccc(NC[C@H](O)CO)cc3F)nc2C(F)(F)F)cnc1C(=O)Nc1ccc(C(=O)N2CCN(C(=O)[C@H]3CC[N@+](CC(=O)O)(CC4CNC4)CC3)CC2)c(Cl)c1` [Example 137, cis-2-[1-(azetidin-3-ylmethyl)-4-[4-[2-chloro-4-[[5-[1-[4-[[(2S)-2,3-dihydroxypropyl]amino]-2-fluoro-phenyl]-3-(trifluoromethyl)pyrazol-4-yl]-1-methyl-imidazole-2-carbonyl]amino]benzoyl]piperazine-1-carbonyl]piperidin-1-ium-1-yl]acetic acid;formate], the IC90 came out at 334 nM. Then `Cn1c(-c2cn(-c3cc4[nH]c(C(=O)N5CC6(CCOCC6)C5)cc4cn3)nc2C(F)(F)F)cnc1C(=O)Nc1ccc(C(=O)N2CCN(C(=O)[C@H]3CC[N@+](CC(=O)O)(CC4CNC4)CC3)CC2)c(Cl)c1` [Example 113, cis-2-[1-(azetidin-3-ylmethyl)-4-[4-[2-chloro-4-[[1-methyl-5-[1-[2-(7-oxa-2-azaspiro[3.5]nonane-2-carbonyl)-1H-pyrrolo[3,2-c]pyridin-6-yl]-3-(trifluoromethyl)pyrazol-4-yl]imidazole-2-carbonyl]amino]benzoyl]piperazine-1-carbonyl]piperidin-1-ium-1-yl]acetic acid. 1:1 2,2,2-trifluoroacetate], with 707 nM.

As to `Cn1c(-c2cn(-c3cc4[nH]c(C(=O)N5CCSCC5)cc4cn3)nc2C(F)(F)F)cnc1C(=O)Nc1ccc(C(=O)N2CCN(C(=O)[C@H]3CC[N@+](CC(=O)O)(CC4CNC4)CC3)CC2)c(Cl)c1` [Example 122, cis-2-[1-(azetidin-3-ylmethyl)-4-[4-[2-chloro-4-[[1-methyl-5-[1-[2-(thiomorpholine-4-carbonyl)-1H-pyrrolo[3,2-c]pyridin-6-yl]-3-(trifluoromethyl)pyrazol-4-yl]imidazole-2-carbonyl]amino]benzoyl]piperazine-1-carbonyl]piperidin-1-ium-1-yl]acetic acid. 1:1 2,2,2-trifluoroacetate], the IC90 is 235 nM.

`CN(C)S(=O)(=O)n1c(CCO)cc2cnc(-n3cc(-c4cnc(C(=O)Nc5ccc(C(=O)N6CCN(C(=O)[C@H]7CC[N@+](CC(=O)O)(CC8CNC8)CC7)CC6)c(Cl)c5)n4C)c(C(F)(F)F)n3)cc21` [Example 158, cis-2-[1-(azetidin-3-ylmethyl)-4-[4-[2-chloro-4-[[5-[1-[1-(dimethylsulfamoyl)-2-(2-hydroxyethyl)pyrrolo[3,2-c]pyridin-6-yl]-3-(trifluoromethyl)pyrazol-4-yl]-1-methyl-imidazole-2-carbonyl]amino]benzoyl]piperazine-1-carbonyl]piperidin-1-ium-1-yl]acetic acid;formate]: the IC90 came out at 783 nM.
